Test system: 991263-137-R1-J2-PDC complex spheroid viability
Experiment: Anticancer human tumor 991263-137-R1-J2-PDC patient-derived colon adenocarcinoma cell line growth inhibition [POLQ]
Conditions: for IC50: curve of first compound; for viability, T/C: stronger effect = lower value
Procedure, shortened: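 Growth inhibition in 3D: complex spheroids (tumor PDC, HUVEC, MSC) treated with POLQ inhibitor combinations; where Cmax unknown, highest tested concentration 10 microM, except SN-38 at 1 microM.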

[1] = second compound 0.0316 µM, first compound 0.0316 µM
[2] = second compound 0.0316 µM, first compound 0.1 µM
[3] = second compound 0.1 µM, first compound 0.0316 µM
[4] = second compound 0.1 µM, first compound 0.1 µM
[5] = second compound 0.316 µM, first compound 0.0316 µM
[6] = second compound 0.316 µM, first compound 0.1 µM
[7] = second compound 1 µM, first compound 0.0316 µM
[8] = second compound 1 µM, first compound 0.1 µM
[9] = second compound 3.16 µM, first compound 0.0316 µM
[10] = second compound 3.16 µM, first compound 0.1 µM
[11] = second compound 10 µM, first compound 0.0316 µM
[12] = second compound 10 µM, first compound 0.1 µM
[13] = second compound 0.0316 µM, first compound 0.316 µM
[14] = second compound 0.0316 µM, first compound 1 µM
[15] = second compound 0.0316 µM, first compound 3.16 µM
[16] = second compound 0.0316 µM, first compound 10 µM
[17] = second compound 0.1 µM, first compound 0.316 µM
[18] = second compound 0.1 µM, first compound 1 µM
[19] = second compound 0.1 µM, first compound 3.16 µM
[20] = second compound 0.1 µM, first compound 10 µM
[21] = second compound 0.316 µM, first compound 0.316 µM
[22] = second compound 0.316 µM, first compound 1 µM
[23] = second compound 0.316 µM, first compound 3.16 µM
[24] = second compound 0.316 µM, first compound 10 µM
[25] = second compound 1 µM, first compound 0.316 µM
[26] = second compound 1 µM, first compound 1 µM
[27] = second compound 1 µM, first compound 3.16 µM
[28] = second compound 1 µM, first compound 10 µM
[29] = second compound 3.16 µM, first compound 0.316 µM
[30] = second compound 3.16 µM, first compound 1 µM
[31] = second compound 3.16 µM, first compound 3.16 µM
[32] = second compound 3.16 µM, first compound 10 µM
[33] = second compound 10 µM, first compound 0.316 µM
[34] = second compound 10 µM, first compound 1 µM
[35] = second compound 10 µM, first compound 3.16 µM
[36] = second compound 10 µM, first compound 10 µM
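Note: spheroids exposed to compounds for 7 days before readout.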
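Throughout, for viability, T/C: 100% = DMSO vehicle control viability.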

`CC[C@@]1(O)C(=O)OCc2c1cc1n(c2=O)Cc2cc3c(CN(C)C)c(O)ccc3nc2-1` + Cc1cccc(N(C)C(=O)C2C(O)CCN2c2nc(C)cc(C(F)(F)F)c2C#N)c1 was tested, and the IC50 (second compound 0.0316 µM) was > 0.1 µM, the IC50 (second compound 0.1 µM) was > 0.1 µM and the IC50 (second compound 0.316 µM) was > 0.1 µM. For the same compound, the IC50 (second compound 1 µM) was > 0.1 µM, the IC50 (second compound 3.16 µM) was > 0.1 µM and the IC50 (second compound 10 µM) was > 0.1 µM. It also gave a viability, T/C (second compound 0.0316 µM, first compound 0.000316 µM) of 111%, a viability, T/C (second compound 0.0316 µM, first compound 0.001 µM) of 115% and a viability, T/C (second compound 0.0316 µM, first compound 0.00316 µM) of 111%. For the same compound, the viability, T/C (second compound 0.0316 µM, first compound 0.01 µM) was 106%, the viability, T/C [1] was 114% and the viability, T/C [2] was 97.3%. The viability, T/C (second compound 0.1 µM, first compound 0.000316 µM) was 112%, the viability, T/C (second compound 0.1 µM, first compound 0.001 µM) was 111% and the viability, T/C (second compound 0.1 µM, first compound 0.00316 µM) was 94%. The viability, T/C (second compound 0.1 µM, first compound 0.01 µM) was 118%, the viability, T/C [3] was 105% and the viability, T/C [4] was 92.8%. The viability, T/C (second compound 0.316 µM, first compound 0.000316 µM) was 117%, the viability, T/C (second compound 0.316 µM, first compound 0.001 µM) was 130% and the viability, T/C (second compound 0.316 µM, first compound 0.00316 µM) was 101%. The viability, T/C (second compound 0.316 µM, first compound 0.01 µM) was 95.9%, the viability, T/C [5] was 101% and the viability, T/C [6] was 91.4%. For the same compound, the viability, T/C (second compound 1 µM, first compound 0.000316 µM) was 111%, the viability, T/C (second compound 1 µM, first compound 0.001 µM) was 114% and the viability, T/C (second compound 1 µM, first compound 0.00316 µM) was 109%. The viability, T/C (second compound 1 µM, first compound 0.01 µM) was 118%, the viability, T/C [7] was 110% and the viability, T/C [8] was 81.5%. It also gave a viability, T/C (second compound 3.16 µM, first compound 0.000316 µM) of 101%, a viability, T/C (second compound 3.16 µM, first compound 0.001 µM) of 98.3% and a viability, T/C (second compound 3.16 µM, first compound 0.00316 µM) of 98.2%. It also gave a viability, T/C (second compound 3.16 µM, first compound 0.01 µM) of 86.6%, a viability, T/C [9] of 96.2% and a viability, T/C [10] of 91.3%. The viability, T/C (second compound 10 µM, first compound 0.000316 µM) was 117%, the viability, T/C (second compound 10 µM, first compound 0.001 µM) was 120% and the viability, T/C (second compound 10 µM, first compound 0.00316 µM) was 108%. It also gave a viability, T/C (second compound 10 µM, first compound 0.01 µM) of 97.5%, a viability, T/C [11] of 90.8% and a viability, T/C [12] of 77%.

For `O=C(c1cc(Cc2n[nH]c(=O)c3ccccc23)ccc1F)N1CCN(C(=O)C2CC2)CC1` + COC1C(OC(N)=O)C(O)C(Oc2ccc3c(O)c(NC(=O)c4ccc(O)c(CC=C(C)C)c4)c(=O)oc3c2C)OC1(C)C, the IC50 (second compound 0.0316 µM) was > 10 µM, the IC50 (second compound 0.1 µM) was > 10 µM and the IC50 (second compound 0.316 µM) was > 10 µM. For the same compound, the IC50 (second compound 1 µM) was > 10 µM, the IC50 (second compound 3.16 µM) was > 10 µM and the IC50 (second compound 10 µM) was > 10 µM. The viability, T/C [1] was 99.2%, the viability, T/C [2] was 96.8% and the viability, T/C [13] was 90.2%. For the same compound, the viability, T/C [14] was 92.7%, the viability, T/C [15] was 96.9% and the viability, T/C [16] was 95.5%. It also gave a viability, T/C [3] of 99.2%, a viability, T/C [4] of 101% and a viability, T/C [17] of 100%. It also gave a viability, T/C [18] of 82.1%, a viability, T/C [19] of 85.5% and a viability, T/C [20] of 85.6%. For the same compound, the viability, T/C [5] was 113%, the viability, T/C [6] was 109% and the viability, T/C [21] was 81.6%. For the same compound, the viability, T/C [22] was 92.5%, the viability, T/C [23] was 113% and the viability, T/C [24] was 108%. The viability, T/C [7] was 93.9%, the viability, T/C [8] was 98.1% and the viability, T/C [25] was 78.2%. The viability, T/C [26] was 93.7%, the viability, T/C [27] was 73.5% and the viability, T/C [28] was 101%. It also gave a viability, T/C [9] of 94.5%, a viability, T/C [10] of 103% and a viability, T/C [29] of 104%. It also gave a viability, T/C [30] of 85%, a viability, T/C [31] of 109% and a viability, T/C [32] of 113%. It also gave a viability, T/C [11] of 82.4%, a viability, T/C [12] of 94.7% and a viability, T/C [33] of 106%. The viability, T/C [34] was 78.4%, the viability, T/C [35] was 112% and the viability, T/C [36] was 103%.

Work on `Nc1ccn(C2OC(CO)C(O)C2(F)F)c(=O)n1` (stereo not drawn) + COC1C(OC(N)=O)C(O)C(Oc2ccc3c(O)c(NC(=O)c4ccc(O)c(CC=C(C)C)c4)c(=O)oc3c2C)OC1(C)C yielded an IC50 (second compound 0.0316 µM) of 0.553 µM, an IC50 (second compound 0.1 µM) of 0.898 µM and an IC50 (second compound 0.316 µM) of 1.92 µM. For the same compound, the IC50 (second compound 1 µM) was 0.86 µM, the IC50 (second compound 3.16 µM) was 0.736 µM and the IC50 (second compound 10 µM) was 1.11 µM. The viability, T/C [1] was 77.8%, the viability, T/C [2] was 56% and the viability, T/C [13] was 56.4%. The viability, T/C [14] was 46.9%, the viability, T/C [15] was 47.6% and the viability, T/C [16] was 36.6%. For the same compound, the viability, T/C [3] was 67.6%, the viability, T/C [4] was 60.5% and the viability, T/C [17] was 57.5%. The viability, T/C [18] was 46.7%, the viability, T/C [19] was 45.5% and the viability, T/C [20] was 42%. It also gave a viability, T/C [5] of 65.1%, a viability, T/C [6] of 70.8% and a viability, T/C [21] of 62%. It also gave a viability, T/C [22] of 54.1%, a viability, T/C [23] of 46.9% and a viability, T/C [24] of 33%. It also gave a viability, T/C [7] of 72.8%, a viability, T/C [8] of 69.9% and a viability, T/C [25] of 53.7%. It also gave a viability, T/C [26] of 48.5%, a viability, T/C [27] of 43.4% and a viability, T/C [28] of 35.5%. It also gave a viability, T/C [9] of 72.1%, a viability, T/C [10] of 63.5% and a viability, T/C [29] of 58%. For the same compound, the viability, T/C [30] was 48%, the viability, T/C [31] was 39.1% and the viability, T/C [32] was 37.9%. For the same compound, the viability, T/C [11] was 69.4%, the viability, T/C [12] was 75.7% and the viability, T/C [33] was 59.7%. It also gave a viability, T/C [34] of 53.3%, a viability, T/C [35] of 38.2% and a viability, T/C [36] of 34.2%.

In the case of `Nc1ccn(C2OC(CO)C(O)C2(F)F)c(=O)n1` (stereo not drawn) + Nc1ccc(C#CCN(C(=O)Cc2ncc(C(F)(F)F)cc2C(F)(F)F)c2ccc(F)cc2)nn1, the IC50 (second compound 0.0316 µM) is reported as 5.74 µM, the IC50 (second compound 0.1 µM) is reported as > 10 µM and the IC50 (second compound 0.316 µM) is reported as 5.3 µM. The IC50 (second compound 1 µM) was > 10 µM, the IC50 (second compound 3.16 µM) was > 10 µM and the IC50 (second compound 10 µM) was > 10 µM. For the same compound, the viability, T/C [1] was 96.1%, the viability, T/C [2] was 75.6% and the viability, T/C [13] was 64.4%. It also gave a viability, T/C [14] of 58.4%, a viability, T/C [15] of 55.2% and a viability, T/C [16] of 45.8%. For the same compound, the viability, T/C [3] was 89.6%, the viability, T/C [4] was 77.5% and the viability, T/C [17] was 59.2%. The viability, T/C [18] was 61.7%, the viability, T/C [19] was 59.9% and the viability, T/C [20] was 47.6%. It also gave a viability, T/C [5] of 94.3%, a viability, T/C [6] of 74.1% and a viability, T/C [21] of 65.9%. It also gave a viability, T/C [22] of 64.2%, a viability, T/C [23] of 57.3% and a viability, T/C [24] of 43.1%. It also gave a viability, T/C [7] of 92.6%, a viability, T/C [8] of 68.3% and a viability, T/C [25] of 69.5%. It also gave a viability, T/C [26] of 59.8%, a viability, T/C [27] of 55.8% and a viability, T/C [28] of 50.2%. For the same compound, the viability, T/C [9] was 104%, the viability, T/C [10] was 82.1% and the viability, T/C [29] was 69.4%. For the same compound, the viability, T/C [30] was 62.5%, the viability, T/C [31] was 63.4% and the viability, T/C [32] was 51.2%. It also gave a viability, T/C [11] of 104%, a viability, T/C [12] of 89.6% and a viability, T/C [33] of 71.1%. It also gave a viability, T/C [34] of 69.5%, a viability, T/C [35] of 64.3% and a viability, T/C [36] of 60.7%.

Reference: PubChem BioAssay AID1963828 (Molecular Pharmacology Branch, DTP, NCI, 2024)
